Results reported in patent US8192962B2, “Processes for detecting toxic substances” (Daikin Industries, Ltd., priority 2001, dated 2012).

Tested on: Stress protein genes
Assay: DNA chip mRNA expression in yeast, stress protein genes (Table 6)
Format: cell-based, Saccharomyces cerevisiae S288C
Description: Yeast (Saccharomyces cerevisiae S288C (α SUC2mal mel gap2 CUP1)) were incubated at 25° C. on YPD medium (yeast extract 1%, polypepton 2%, glucose 2%). One of toxic chemical substances was added to the cells at logarithmic growth phase, and the cells were further incubated for two hours. Cells were cultured without any chemical substance in the same condition, and were used as control. Concentrations of the chemical substances were defined to inhibit the growth of the yeast but not lead to death.
After completion of the incubation, the culture was centrifuged to collect the cells. To the cells, sodium acetate buffer (50 mM sodium acetate, 10 mM EDTA, 1% SDS) was added, and the mixture was shaken at 65° C. for five minutes, followed by returning to room temperature, and obtaining the supernatant, of which the procedures were repeated two times. To the supernatant, ½ amount of a solution of phenol/chloroform was added, and the mixture was centrifuged to give a supernatant, which was added with an equal amount of chloroform, and the mixture was centrifuged to give a supernatant. To the supernatant, an equal amount of isopropanol containing 0.3 M sodium acetate was added, and the mixture was allowed to stand at room temperature for 30 minutes, after which the mixture was centrifuged to give a sediment of the whole RNAs. Seventy % ethanol was added to the sediment, and the mixture was again centrifuged to give a sediment, which was then dried and dissolved in water. mRNA was isolated from the whole RNAs as followings. In view of the fact that a poly A chain is attached to the 3′ terminus of mRNA, a polynucleotide having a poly T structure which was immobilized on the surface of latex beads was used to trap the mRNA, and then the mRNA was washed and eluted with spine column (Oligotex-dT30<Super>mRNA Purification Kit, Takara). Reverse transcription of the mRNA was conducted with a reverse transcriptase (Super Script II Reverse Transcriptase; catalogue No. 18064-014, GibcoBRL) using fluorescence-labeled nucleotides to give cDNAs that were introduced with Cy3-dUTP or Cy5-dUTP during the reverse transcription.
The labeled cDNAs were dissolved in TE buffer (10mM Tris-HCl/1 mM EDTA, pH8.0), and the solution was dropped on the DNA chip containing the whole genes of yeast (DNA Chip Research Inc. Japan) so that the cDNAs were hybridized on the DNA chip at 65° C. for over 12 hours. The fluoresces intensity of the DNA chip was read with a scanner, and the ratio relative to the fluorescence intensity resulting from the absence of chemical substance was estimated as the following, which is shown in Tables 1 to 9: […]

S=C([S-])NCCNC(=S)[S-].[Zn+2] [(11), zinc N,N′-ethylenebis(dithiocarbamate)]
The level of expressed mRNA in the presence of chemical substance/The level of expressed mRNA in the absence of chemical substance (yeast gene YAL005C): 1.0 | The level of expressed mRNA in the presence of chemical substance/The level of expressed mRNA in the absence of chemical substance (yeast gene YAL015C): 1.4 | The level of expressed mRNA in the presence of chemical substance/The level of expressed mRNA in the absence of chemical substance (yeast gene YBL075C): 1.6 | The level of expressed mRNA in the presence of chemical substance/The level of expressed mRNA in the absence of chemical substance (yeast gene YBL093C): 1.3 | The level of expressed mRNA in the presence of chemical substance/The level of expressed mRNA in the absence of chemical substance (yeast gene YBR044C): 1.1 | The level of expressed mRNA in the presence of chemical substance/The level of expressed mRNA in the absence of chemical substance (yeast gene YBR054W): 1.8 | The level of expressed mRNA in the presence of chemical substance/The level of expressed mRNA in the absence of chemical substance (yeast gene YBR067C): 3.1 | The level of expressed mRNA in the presence of chemical substance/The level of expressed mRNA in the absence of chemical substance (yeast gene YBR072W): 6.3 | The level of expressed mRNA in the presence of chemical substance/The level of expressed mRNA in the absence of chemical substance (yeast gene YBR126C): 1.1 | The level of expressed mRNA in the presence of chemical substance/The level of expressed mRNA in the absence of chemical substance (yeast gene YBR169C): 2.2 | The level of expressed mRNA in the presence of chemical substance/The level of expressed mRNA in the absence of chemical substance (yeast gene YCL035C): 2.1 | The level of expressed mRNA in the presence of chemical substance/The level of expressed mRNA in the absence of chemical substance (yeast gene YCR021C): 0.6 | The level of expressed mRNA in the presence of chemical substance/The level of expressed mRNA in the absence of chemical substance (yeast gene YCR060W): 1.2 | The level of expressed mRNA in the presence of chemical substance/The level of expressed mRNA in the absence of chemical substance (yeast gene YCR083W): 1.8 | The level of expressed mRNA in the presence of chemical substance/The level of expressed mRNA in the absence of chemical substance (yeast gene YDL022W): 2.8 | The level of expressed mRNA in the presence of chemical substance/The level of expressed mRNA in the absence of chemical substance (yeast gene YDL025C): 1.5 | The level of expressed mRNA in the presence of chemical substance/The level of expressed mRNA in the absence of chemical substance (yeast gene YDR033W): 0.7 | The level of expressed mRNA in the presence of chemical substance/The level of expressed mRNA in the absence of chemical substance (yeast gene YDR077W): 6.8 | The level of expressed mRNA in the presence of chemical substance/The level of expressed mRNA in the absence of chemical substance (yeast gene YDR098C): 1.4 | The level of expressed mRNA in the presence of chemical substance/The level of expressed mRNA in the absence of chemical substance (yeast gene YDR155C): 3.8 | The level of expressed mRNA in the presence of chemical substance/The level of expressed mRNA in the absence of chemical substance (yeast gene YDR258C): 1.7 | The level of expressed mRNA in the presence of chemical substance/The level of expressed mRNA in the absence of chemical substance (yeast gene YDR293C): 1.1 | The level of expressed mRNA in the presence of chemical substance/The level of expressed mRNA in the absence of chemical substance (yeast gene YDR436W): 2.0 | The level of expressed mRNA in the presence of chemical substance/The level of expressed mRNA in the absence of chemical substance (yeast gene YDR513W): 2.0 | The level of expressed mRNA in the presence of chemical substance/The level of expressed mRNA in the absence of chemical substance (yeast gene YDR519W): 1.2 | The level of expressed mRNA in the presence of chemical substance/The level of expressed mRNA in the absence of chemical substance (yeast gene YEL030W): 1.7 | The level of expressed mRNA in the presence of chemical substance/The level of expressed mRNA in the absence of chemical substance (yeast gene YEL039C): 1.7 | The level of expressed mRNA in the presence of chemical substance/The level of expressed mRNA in the absence of chemical substance (yeast gene YER042W): 1.8 | The level of expressed mRNA in the presence of chemical substance/The level of expressed mRNA in the absence of chemical substance (yeast gene YER057C): 1.8 | The level of expressed mRNA in the presence of chemical substance/The level of expressed mRNA in the absence of chemical substance (yeast gene YER103W): 1.8 | The level of expressed mRNA in the presence of chemical substance/The level of expressed mRNA in the absence of chemical substance (yeast gene YER125W): 1.0 | The level of expressed mRNA in the presence of chemical substance/The level of expressed mRNA in the absence of chemical substance (yeast gene YFL014W): 5.0 | The level of expressed mRNA in the presence of chemical substance/The level of expressed mRNA in the absence of chemical substance (yeast gene YFL016C): 1.2 | The level of expressed mRNA in the presence of chemical substance/The level of expressed mRNA in the absence of chemical substance (yeast gene YFL020C): 1.2 | The level of expressed mRNA in the presence of chemical substance/The level of expressed mRNA in the absence of chemical substance (yeast gene YFR052W): 0.9 | The level of expressed mRNA in the presence of chemical substance/The level of expressed mRNA in the absence of chemical substance (yeast gene YGL073W): 0.8 | The level of expressed mRNA in the presence of chemical substance/The level of expressed mRNA in the absence of chemical substance (yeast gene YGL115W): 1.0 | The level of expressed mRNA in the presence of chemical substance/The level of expressed mRNA in the absence of chemical substance (yeast gene YGL181W): 1.2 | The level of expressed mRNA in the presence of chemical substance/The level of expressed mRNA in the absence of chemical substance (yeast gene YGR088W): 3.9 | The level of expressed mRNA in the presence of chemical substance/The level of expressed mRNA in the absence of chemical substance (yeast gene YHL028W): 0.7 | The level of expressed mRNA in the presence of chemical substance/The level of expressed mRNA in the absence of chemical substance (yeast gene YHL046C): 0.4 | The level of expressed mRNA in the presence of chemical substance/The level of expressed mRNA in the absence of chemical substance (yeast gene YHR030C): 1.5 | The level of expressed mRNA in the presence of chemical substance/The level of expressed mRNA in the absence of chemical substance (yeast gene YHR057C): 1.6 | The level of expressed mRNA in the presence of chemical substance/The level of expressed mRNA in the absence of chemical substance (yeast gene YHR104W): 2.6 | The level of expressed mRNA in the presence of chemical substance/The level of expressed mRNA in the absence of chemical substance (yeast gene YIL011W): 2.5
